# Laboratory results published in patent publication US20240115670A1, “FIBROBLAST ACTIVATION PROTEIN MODULATION TO ALTER IMMUNE CELL MIGRATION AND TUMOR INFILTRATION” (Georgetown University, priority 2021, published 2024).
# How the values were obtained:
# NK92-GFP cells = experiment: NK92-GFP extravasation from zebrafish blood vessels; format: in vivo; conditions: fish bathed in 10 uM Cpd60 vs vehicle; 1 hour after injection
# Method: The zebrafish embryos were anesthetized with 0.0003016% tricaine (Pentair Aquatic Eco-Systems, Sigma-Aldrich, St. Louis, MO, USA) in the Georgetown-Lombardi Animal Shared Resource and positioned within our zebrafish stereotax on a proprietary microinjection plate. NK92-GFP cells were injected into the pericardium using an air driven Picospritzer Ha microinjector (General Valve/Parker Hannifin) under a stereoscope. After transplantation, embryos were allowed to recover for 1 hour at 33° C. Confocal imaging was performed on an Olympus IX-71 inverted microscope with a color CCD camera in the Georgetown-Lombardi Microscopy Shared Resource. Fluorescent imaging was performed on Keyence BZ-X. Images were taken at 10× across multiple z-stacks. […] NK extravasation quantification was performed by counting the number of GFP cells outside red vasculature. NK extravasation quantification was performed blinded to the treatment conditions. […]
# Zebrafish studies were conducted in accordance with NIH guidelines for the care and use of laboratory animals and were approved by the Georgetown University Institutional Animal Care and Use Committee. […] NK extravasation quantification was performed by counting the number of GFP cells outside red vasculature. NK extravasation quantification was performed blinded to the treatment conditions. […]
# PANC-1 cell clusters = experiment: NK cell lysis of PANC-1 clusters in 3D matrix (cleaved caspase 3); format: cell-based, human; conditions: 10 uM Cpd60
# Method: 3D clusters were generated, embedded and stained as previously described. In brief, clusters were generated by plating 1,000 cells per well into 96-well Nunclon Sphera low adhesion plates (Thermo Scientific, cat #174925) and incubated overnight at 37° C. The following day, 6 clusters were embedded into an ECM containing 2,000 NK cells and plated into one well of a Nunc Lab-Tek II 8-well chamber slide (ThermoScientific, cat #154534PK). The ECM mixture consisted of 20% growth factor reduced Matrigel (Corning, 10-12 mg/ml stock concentration, #354230) and 80% rat tail collagen type I at 3 mg/mL (gibco, A1048301). Cells were either imaged for the following 24 hours every 30 minutes using the Zeiss LSM800 scanning confocal microscope or allowed to incubate overnight at 37° C. After 24 hours, cells in matrix were fixed with 5.4% formalin for 1 hour, permeabilized with 0.5% Triton-X and blocked using goat serum. For invasion assays, NK-92-GFP cells were stained with anti-GFP (ThermoFisher, cat #A-11122). For the cell lysis assays clusters were stained using anti-cleaved caspase 3 (Cell Signaling, cat #9661). Hoechst 33342, phalloidin, and secondary antibodies labeled with Alexa Fluor 488 nm, 546 nm, 647 nm, or 680 nm (Invitrogen) were used.
# 3D clusters were generated, embedded and stained as previously described (34, 35). […]
# PANC-1 cells = experiment: NK cell lysis of PANC-1 cells in 2D cocultures; format: cell-based, human
# FAP = conditions: mouse, in vivo; cited from earlier work
smiles,measurement,setting,value
N#C[C@@H]1CC(F)(F)CN1C(=O)CNC(=O)c1ccnc2ccccc12 [Cpd60],NK cell extravasation from the blood vessels,NK92-GFP cells,significantly reduced
same,PANC-1 cell apoptosis (cleaved caspase 3) in 3D cultures with NK92,PANC-1 cell clusters; NK92 cells,significantly reduced
same,donor NK cell lysis of PANC-1 cells in 3D,"PANC-1 cell clusters; NK cells from two donors, normalized to cluster area",reduced
same,PANC-1 cell apoptosis in 2D cell cocultures with NK92,PANC-1 cells,no effect
same,FAP inhibition in murine models,FAP,selectively and completely inhibits FAP
